Source: PubChem BioAssay (NCI)
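Results reflect a 48-hour exposure of cells in 96-well plates to compound at five concentrations. Definition used: TGI = concentration required for complete inhibition of growth.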

Experiments:
Test in all cases: DTP human tumour cell line panel, 48 h
786-0 renal = test system: 786-0 renal
A498 renal = test system: A498 renal
A549 NSCLC = test system: A549 NSCLC
ACHN renal = test system: ACHN renal
BT-549 breast = test system: BT-549 breast
CCRF-CEM leukemia = test system: CCRF-CEM leukemia
COLO 205 colon = test system: COLO 205 colon
DU-145 prostate = test system: DU-145 prostate
EKVX NSCLC = test system: EKVX NSCLC
HCC-2998 colon = test system: HCC-2998 colon
HCT-15 colon = test system: HCT-15 colon
HL-60(TB) leukemia = test system: HL-60(TB) leukemia
HOP-62 NSCLC = test system: HOP-62 NSCLC
HOP-92 NSCLC = test system: HOP-92 NSCLC
HS 578T breast = test system: HS 578T breast
HT29 colon = test system: HT29 colon
K-562 leukemia = test system: K-562 leukemia
KM12 colon = test system: KM12 colon
LOX IMVI melanoma = test system: LOX IMVI melanoma
M14 melanoma = test system: M14 melanoma
MALME-3M melanoma = test system: MALME-3M melanoma
MCF7 breast = test system: MCF7 breast
MDA-MB-231 breast = test system: MDA-MB-231 breast
MDA-MB-435 = test system: MDA-MB-435
MDA-N = test system: MDA-N
MOLT-4 leukemia = test system: MOLT-4 leukemia
NCI-H226 lung = test system: NCI-H226 lung
NCI-H23 lung = test system: NCI-H23 lung
NCI-H460 lung = test system: NCI-H460 lung
NCI/ADR-RES ovarian = test system: NCI/ADR-RES ovarian
OVCAR-3 ovarian = test system: OVCAR-3 ovarian
OVCAR-4 ovarian = test system: OVCAR-4 ovarian
OVCAR-5 ovarian = test system: OVCAR-5 ovarian
OVCAR-8 ovarian = test system: OVCAR-8 ovarian
PC-3 prostate = test system: PC-3 prostate
RPMI-8226 leukemia = test system: RPMI-8226 leukemia
SF-268 CNS = test system: SF-268 CNS
SF-295 CNS = test system: SF-295 CNS
SF-539 CNS = test system: SF-539 CNS
SK-MEL-2 melanoma = test system: SK-MEL-2 melanoma
SK-MEL-28 melanoma = test system: SK-MEL-28 melanoma
SK-MEL-5 melanoma = test system: SK-MEL-5 melanoma
SK-OV-3 ovarian = test system: SK-OV-3 ovarian
SN12C renal = test system: SN12C renal
SNB-19 CNS = test system: SNB-19 CNS
SNB-75 CNS = test system: SNB-75 CNS
SR leukemia = test system: SR leukemia
SW-620 colon = test system: SW-620 colon
T-47D breast = test system: T-47D breast
TK-10 renal = test system: TK-10 renal
U251 CNS = test system: U251 CNS
UACC-257 melanoma = test system: UACC-257 melanoma
UACC-62 melanoma = test system: UACC-62 melanoma
UO-31 renal = test system: UO-31 renal
CAKI-1 renal = test system: CAKI-1 renal
HCT-116 colon = test system: HCT-116 colon
IGROV1 ovarian = test system: IGROV1 ovarian
NCI-H522 lung = test system: NCI-H522 lung

NC(=NCc1ccccc1)N/N=C\c1ccnc2ccccc12
TGI (786-0 renal): 29.9 µM | TGI (A498 renal): 25.2 µM | TGI (A549 NSCLC): 36.9 µM | TGI (ACHN renal): 32 µM | TGI (BT-549 breast): 18.6 µM | TGI (CCRF-CEM leukemia): 76.3 µM | TGI (COLO 205 colon): 3.21 µM | TGI (DU-145 prostate): 32.3 µM | TGI (EKVX NSCLC): 33.1 µM | TGI (HCC-2998 colon): 4.51 µM | TGI (HCT-15 colon): 37.4 µM | TGI (HL-60(TB) leukemia): 36.4 µM | TGI (HOP-62 NSCLC): 32.1 µM | TGI (HOP-92 NSCLC): 7.86 µM | TGI (HS 578T breast): 49.4 µM | TGI (HT29 colon): 25.4 µM | TGI (K-562 leukemia): 24.2 µM | TGI (KM12 colon): 47.9 µM | TGI (LOX IMVI melanoma): 28.5 µM | TGI (M14 melanoma): 17.5 µM | TGI (MALME-3M melanoma): 27 µM | TGI (MCF7 breast): 25.5 µM | TGI (MDA-MB-231 breast): 28.2 µM | TGI (MDA-MB-435): 23.9 µM | TGI (MDA-N): 26.6 µM | TGI (MOLT-4 leukemia): 46 µM | TGI (NCI-H226 lung): 38.6 µM | TGI (NCI-H23 lung): 31.7 µM | TGI (NCI-H460 lung): 31 µM | TGI (NCI/ADR-RES ovarian): 35.6 µM | TGI (OVCAR-3 ovarian): 27.2 µM | TGI (OVCAR-4 ovarian): 33 µM | TGI (OVCAR-5 ovarian): 32.7 µM | TGI (OVCAR-8 ovarian): 29.9 µM | TGI (PC-3 prostate): 35.9 µM | TGI (RPMI-8226 leukemia): 4.14 µM | TGI (SF-268 CNS): 28.6 µM | TGI (SF-295 CNS): 32.2 µM | TGI (SF-539 CNS): 29.2 µM | TGI (SK-MEL-2 melanoma): 22.1 µM | TGI (SK-MEL-28 melanoma): 25.1 µM | TGI (SK-MEL-5 melanoma): 20 µM | TGI (SK-OV-3 ovarian): 29.7 µM | TGI (SN12C renal): 29.6 µM | TGI (SNB-19 CNS): 36.9 µM | TGI (SNB-75 CNS): 21.5 µM | TGI (SR leukemia): 4.98 µM | TGI (SW-620 colon): 31.2 µM | TGI (T-47D breast): 5.87 µM | TGI (TK-10 renal): 32.1 µM | TGI (U251 CNS): 36.6 µM | TGI (UACC-257 melanoma): 8.63 µM | TGI (UACC-62 melanoma): 29.4 µM | TGI (UO-31 renal): 22.1 µM

CC(C)=CCc1c(O)c(CC=C(C)C)c2oc3c(c(=O)c2c1O)C(C=C(C)C)Oc1cc(O)ccc1-3 (stereo unspecified)
TGI (786-0 renal): 19.5 µM | TGI (A498 renal): 29.8 µM | TGI (A549 NSCLC): 20.6 µM | TGI (ACHN renal): 15.4 µM | TGI (BT-549 breast): 25 µM | TGI (CAKI-1 renal): 19.4 µM | TGI (CCRF-CEM leukemia): 7.68 µM | TGI (COLO 205 colon): 30.3 µM | TGI (DU-145 prostate): 24.3 µM | TGI (EKVX NSCLC): 14.5 µM | TGI (HCT-116 colon): 13.2 µM | TGI (HCT-15 colon): 19.1 µM | TGI (HL-60(TB) leukemia): 29.8 µM | TGI (HOP-62 NSCLC): 31 µM | TGI (HOP-92 NSCLC): 28.3 µM | TGI (HS 578T breast): 43.8 µM | TGI (HT29 colon): 23.1 µM | TGI (IGROV1 ovarian): 20.2 µM | TGI (K-562 leukemia): 16.6 µM | TGI (KM12 colon): 11.6 µM | TGI (LOX IMVI melanoma): 16 µM | TGI (M14 melanoma): 21 µM | TGI (MALME-3M melanoma): 37 µM | TGI (MCF7 breast): 17.5 µM | TGI (MDA-MB-231 breast): 25.6 µM | TGI (MDA-MB-435): 13.7 µM | TGI (MDA-N): 12.1 µM | TGI (MOLT-4 leukemia): 16.6 µM | TGI (NCI-H226 lung): 49.8 µM | TGI (NCI-H23 lung): 16.2 µM | TGI (NCI-H460 lung): 17 µM | TGI (NCI-H522 lung): 15.2 µM | TGI (NCI/ADR-RES ovarian): 38.4 µM | TGI (OVCAR-3 ovarian): 14.8 µM | TGI (OVCAR-4 ovarian): 23.3 µM | TGI (OVCAR-5 ovarian): 33.1 µM | TGI (OVCAR-8 ovarian): 24.4 µM | TGI (PC-3 prostate): 14.4 µM | TGI (RPMI-8226 leukemia): 20.6 µM | TGI (SF-268 CNS): 28 µM | TGI (SF-295 CNS): 19.2 µM | TGI (SF-539 CNS): 25.5 µM | TGI (SK-MEL-2 melanoma): 7.93 µM | TGI (SK-MEL-28 melanoma): 21.5 µM | TGI (SK-MEL-5 melanoma): 21.5 µM | TGI (SK-OV-3 ovarian): 29 µM | TGI (SN12C renal): 18.2 µM | TGI (SNB-19 CNS): 24.2 µM | TGI (SNB-75 CNS): 14.1 µM | TGI (SR leukemia): 8.29 µM | TGI (SW-620 colon): 18.1 µM | TGI (T-47D breast): 15.4 µM | TGI (TK-10 renal): 13.3 µM | TGI (U251 CNS): 16.7 µM | TGI (UACC-257 melanoma): 26.9 µM | TGI (UACC-62 melanoma): 18 µM | TGI (UO-31 renal): 15.7 µM
